Measurements reported in the METLIN SMRT retention time set (Domingo-Almenara et al. 2019).

Assay: gradient 5% acetonitrile 3 min, to 50% in 2 min, to 85% in 15 min, held 3 min, 100 µL/min
Conditions: column: Zorbax Extend-C18 2.1 x 50 mm; eluents: water / acetonitrile, 0.1% formic acid
Outline: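 Each retention time is based on an adduct peak selected computationally and verified by manual inspection. Measurements used HPLC–quadrupole time-of-flight mass spectrometry in positive and negative ionization mode on mixtures of ~100 pure standards. Chromatography ran on a Zorbax Extend-C18 column (2.1 × 50 mm, 1.8 μm) at 100 μL/min with water and acetonitrile, each containing 0.1% formic acid, and dead and dwell volumes of 40 μL and 900 μL.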

Structure (SMILES) | RP-LC retention time [s]
Cc1ccc(-c2noc3ncnc(N4CCN(c5ccccn5)CC4)c23)cc1 | 690
Cc1nc(C)c(C(=O)N2CCCCCCNC(=O)[C@@H]3CCCC[C@@H]32)s1 | 727
CCOC(=O)c1c(C)[nH]c(C(=O)N2CCC(CC(=O)NC3CC3)CC2)c1C | 654
CCOc1cc(C(=O)NCC(=O)Nc2nc3ccccc3[nH]2)cc(OCC)c1OCC | 715
O=C(Nc1nccs1)C1CCN(S(=O)(=O)c2cc(C(=O)N3CCOCC3)cs2)CC1 | 680
CCOc1cccc(CNC(=O)C2CCc3nc(N4CCOCC4)ncc3C2)c1 (stereo unspecified) | 743
COc1cccc(N2CCN(c3nc(C(=O)NCCN4CCOCC4)cs3)CC2)c1 | 667
O=C(NCc1ccc2c(c1)OCO2)C1CCc2nc(N3CCCC3)ncc2C1 (stereo unspecified) | 631
Cc1ccc2nc(-c3cccc(Cl)c3)c(Nc3ccccc3C)n2c1 | 807
CCn1cc(C(=O)Nc2ccc(C)cc2)c2cccnc21 | 859
Cc1ccc(CCNC(=O)CN2C(=O)CSc3cccn3-c3ccccc32)cc1 | 965
O=c1ccc(S(=O)(=O)N2CCOCC2)cn1Cc1cc(F)cc(F)c1 | 791
c1coc(CN2CC(Oc3ccc(-c4noc(-c5ccncc5)n4)cc3)C2)c1 | 665
CCOC(=O)Cn1cccc1-c1nc(-c2ccncc2)no1 | 844
COc1ccc(OCC(=O)N2CCCCC2CCN2CCOCC2)cc1 (stereo unspecified) | 601
COc1ccc(-c2csc(NC(=O)c3cccc([N+](=O)[O-])c3C(=O)O)n2)cc1 | 938
CCN1CCC(N(Cc2ccc3c(c2)OCO3)C(=O)Nc2cc(C)ccc2OC)CC1 | 706
CCc1ccc(N2CC(c3nc4ccccc4n3CC(=O)N3CCCC3)CC2=O)cc1 (stereo unspecified) | 739
CCCCCn1c(=O)c2ccccc2n(Cc2nc(-c3ccc(C)c(C)c3)no2)c1=O | 795
O=C(c1ccc(C(F)(F)F)cc1)N1CCN(c2nc(CN3CCCCC3)cs2)CC1 | 684
CCc1cccc(NC(=O)Cc2nnc3cc(-c4nc(C(C)C)no4)ccn23)c1 | 918
Cc1cc(C)cc(Nc2c(-c3ccc4c(c3)OCO4)nc3cnccn23)c1 | 984

Structure (SMILES) | RP-LC retention time [s]
Cc1cc(Cl)cc2sc(NCC3CCCO3)nc12 (stereo unspecified) | 958
O=C(CN1CCC(c2nc(-c3ccc(F)cc3)no2)CC1)NCc1ccc2c(c1)OCO2 | 720
Cc1cc(-c2ccc(C)c(S(=O)(=O)Nc3ccc(Cl)cc3)c2)n[nH]1 | 898
COc1ccccc1OCCNC(=O)C1CCc2nc(N3CCC(C)CC3)ncc2C1 (stereo unspecified) | 776
Cc1ccc(C)c(-c2cc3c(=O)n(Cc4noc(-c5ccccc5)n4)ccn3n2)c1 | 860
CCC(c1cccs1)N1C(=O)[C@H]2CN(S(=O)(=O)c3cccc(Cl)c3)C[C@H]2C1=O (stereo partly specified) | 1060
CCc1noc(NC(C)=O)c1-c1ccc(C)c(S(=O)(=O)Nc2cc(OC)c(OC)c(OC)c2)c1 | 761
CCOc1ccc(S(=O)(=O)N2CCCC(C(=O)NCCCOC)C2)cc1C (stereo unspecified) | 847
CN1CCCN(C(=O)COc2ccc(Cl)cc2)c2ccccc21 | 960
Cc1cccc(NC(=O)CN2C(=O)NC3(CCCCC3)C2=O)c1C | 765
Cc1nc(-c2ccccc2)cc2nn(CC(=O)Nc3ccc4c(c3)OCO4)c(=O)n12 | 719
COc1ccc(NS(=O)(=O)c2cc3n(c2)CCN(C(C)C)C3=O)cc1 | 717
Cc1ccsc1C(=O)N1CCN(c2ccc(=O)n(-c3cccc(Cl)c3)n2)CC1 | 853
Cc1ccc(Cl)cc1N1CCN(c2ccc3cc(S(=O)(=O)N4CCCCC4)ccc3n2)CC1 | 1000
COc1ccc(C2(C(=O)N3CCC(n4c(C)cnc4C4CCC4)CC3)CC2)cc1 | 662
Cc1nn(-c2ccc(Cl)cc2)c(C)c1S(=O)(=O)N1CCC(C(=O)N2CCCC2)CC1 | 868
OC(CNCc1ccc(-c2ccc(F)cc2)o1)c1ccccc1 (stereo unspecified) | 687
CCc1ccc(NC(=O)Cn2c(N3CCCCC3)nc(C)cc2=O)cc1 | 661
O=C1NC2CCCCC2=C1CC(=O)N1CCCCC1 (stereo unspecified) | 633
COc1ccc(CC(=O)N2CCCC2c2c(C)noc2C)cc1 (stereo unspecified) | 727
O=C(Cn1nc2nc(N3CCCC3)ccn2c1=O)Nc1ccc2c(c1)OCO2 | 647
COc1ccc(-c2cn3c(CC(=O)Nc4cccc(C#N)c4)csc3n2)cc1 | 756

Structure (SMILES) | RP-LC retention time [s]
CCN1CCCC1CNC(=O)CCC(=O)N1CCCn2nc(-c3cn(C)c4ccccc34)cc21 (stereo unspecified) | 620
CCc1c(C(=O)O)nnn1-c1ccc(C)c(Cl)c1 | 809
CC(=O)N1c2ccc(S(=O)(=O)NCc3ccc4c(c3)CCN4C(=O)CC(C)C)cc2CC1C (stereo unspecified) | 874
Cc1cc(OCC(=O)Nc2c(C)cccc2C)nc(N2CCN(c3ccccc3)CC2)n1 | 861
Cc1cccc(C)c1NC(=O)Cn1nc(N2CCOCC2)c2ccccc2c1=O | 744
O=c1n(Cc2ccccc2F)nc2c(S(=O)(=O)N3CCN(c4ccc(F)cc4)CC3)cccn12 | 969
COc1ccc(NC(=O)Cn2ccnc2-c2ccnc(N3CCOCC3)c2)cc1Cl | 631
Cn1cc(C(=O)N2CC(c3noc(C4CCCN4CC4CC4)n3)C2)cn1 (stereo unspecified) | 549
CC1CCC(NC(=O)C2CCN(S(=O)(=O)c3ccc4c(c3)sc(=O)n4C(C)C)CC2)CC1 (stereo unspecified) | 1020
COc1ccc(-n2c(=O)c(C(=O)NCc3ccc4c(c3)OCO4)c(O)c3cccnc32)cc1 | 1090
COCCC(=O)N1CCCN(C2=NS(=O)(=O)C(c3ccc(F)cc3)=C2C)CC1 | 697
O=C(NCCc1c[nH]c2ccccc12)c1cc(=O)[nH]c2ccccc12 | 682
O=C(NCc1ccccn1)c1cccc2c1CCN2C(=O)c1ccc(F)cc1 | 644
COc1cc2nc(C(=O)N3CCCCC3)cc(Nc3ccc(F)c(F)c3)c2cc1OC | 720
CC(NC(=O)C(=O)NCc1nc(-c2ccccc2)no1)c1ccccc1 (stereo unspecified) | 856
CC(C)(C)C(=O)N1CCCC(c2ccnc(-c3ccccc3)n2)C1 (stereo unspecified) | 1020
Cc1cc(=O)n(CC(=O)Nc2ccc(C)c(C)c2)c(N2CCCC2)n1 | 668
O=C(NCCc1ccccc1)N1CCc2nc[nH]c2C1 | 575
O=C(CCNc1c(-c2ccc(F)cc2)nc2cnccn12)N1CCCCC1 | 730
COC[C@@H]1CN(Cc2cccc(OC)c2OC)C[C@H]1c1ccccn1 | 656
Cn1cc(SCC(=O)Nc2ccccc2C(F)(F)F)c2ccccc21 | 967
CCc1ccc(C(C)NC(=O)c2nnc(-c3ccc(S(=O)(=O)N(C)C)cc3)o2)cc1 (stereo unspecified) | 1010
